Assay results from paper PMC5218480 (PLoS ONE, 2017).

Tested on: MV-4-11 cells
Test: Gene expression microarray analysis (Affymetrix PrimeView) and GSEA
Assay type: cell-based, human
Parameters: RFU PODN (11730768_x_at) / Fold change /veh PODN (11730768_x_at) / RFU LINC00158 (11744669_a_at) / Fold change /veh LINC00158 (11744669_a_at) / RFU DUSP10 (11751237_a_at) / Fold change /veh DUSP10 (11751237_a_at) / RFU ID3 (11757404_x_at) / Fold change /veh ID3 (11757404_x_at) / RFU PLEKHG5 (11737974_s_at) / Fold change /veh PLEKHG5 (11737974_s_at) / RFU LRRC4B (11730491_at) / Fold change /veh LRRC4B (11730491_at) / RFU GIMAP4 (11747438_a_at) / Fold change /veh GIMAP4 (11747438_a_at) / RFU KRT8 (11758183_x_at) / Fold change /veh KRT8 (11758183_x_at) / RFU CNN1 (11734310_a_at) / Fold change /veh CNN1 (11734310_a_at) / RFU VPS37D (11726825_at) / Fold change /veh VPS37D (11726825_at) / RFU C10orf10 (11716522_x_at) / Fold change /veh C10orf10 (11716522_x_at) / RFU KIR2DL2 /// KIR2DL4 /// KIR2DL5A /// KIR2DL5B /// KIR2DS1 /// KIR2DS2 /// KIR2DS3 /// KIR2DS4 /// KIR3DL3 /// KIR3DL3 /// KIR3DS1 (11738374_at) / Fold change /veh KIR2DL2 /// KIR2DL4 /// KIR2DL5A /// KIR2DL5B /// KIR2DS1 /// KIR2DS2 /// KIR2DS3 /// KIR2DS4 /// KIR3DL3 /// KIR3DL3 /// KIR3DS1 (11738374_at) / RFU C1QL1 (11718748_at) / Fold change /veh C1QL1 (11718748_at) / RFU TMPRSS4 (11747572_a_at) / Fold change /veh TMPRSS4 (11747572_a_at) / RFU HAMP (11756126_x_at) / Fold change /veh HAMP (11756126_x_at) / RFU RNFT2 (11725882_a_at) / Fold change /veh RNFT2 (11725882_a_at) / RFU NR4A2 (11747474_a_at) / Fold change /veh NR4A2 (11747474_a_at) / RFU ABCC12 (11746883_a_at) / Fold change /veh ABCC12 (11746883_a_at) / RFU TMEM136 (11760407_x_at) / Fold change /veh TMEM136 (11760407_x_at) / RFU CLDN22 /// WWC2 (11732394_at) / Fold change /veh CLDN22 /// WWC2 (11732394_at) / RFU HLA-DPB1 (11760878_x_at) / Fold change /veh HLA-DPB1 (11760878_x_at) / RFU SPINT1 (11716480_a_at) / Fold change /veh SPINT1 (11716480_a_at) / RFU GAP43 (11754022_s_at) / Fold change /veh GAP43 (11754022_s_at) / RFU A4GNT (11735810_at) / Fold change /veh A4GNT (11735810_at) / RFU PRB3 (11715151_x_at) / Fold change /veh PRB3 (11715151_x_at) / RFU TUBB4B (11761932_at) / Fold change /veh TUBB4B (11761932_at) / RFU CAPN14 (11732068_a_at) / Fold change /veh CAPN14 (11732068_a_at) / RFU TMCC2 (11721928_a_at) / Fold change /veh TMCC2 (11721928_a_at) / RFU IRGQ (11745062_a_at) / Fold change /veh IRGQ (11745062_a_at) / RFU FAM174B (11720279_a_at) / Fold change /veh FAM174B (11720279_a_at) / RFU TMPRSS4 (11748680_a_at) / Fold change /veh TMPRSS4 (11748680_a_at) / RFU FAM212B (11763350_a_at) / Fold change /veh FAM212B (11763350_a_at) / RFU PLEKHG5 (11743358_a_at) / Fold change /veh PLEKHG5 (11743358_a_at) / RFU ZSCAN30 (11745921_a_at) / Fold change /veh ZSCAN30 (11745921_a_at) / RFU CMKLR1 (11741424_a_at) / Fold change /veh CMKLR1 (11741424_a_at) / RFU LOC101060620 /// MAPK8IP1 (11723275_at) / Fold change /veh LOC101060620 /// MAPK8IP1 (11723275_at) / RFU SPTSSB (11747773_x_at) / Fold change /veh SPTSSB (11747773_x_at) / RFU PRSS12 (11739890_at) / Fold change /veh PRSS12 (11739890_at) / RFU BIN1 (11741810_x_at) / Fold change /veh BIN1 (11741810_x_at) / RFU WNT11 (11732464_a_at) / Fold change /veh WNT11 (11732464_a_at) / RFU C10orf10 (11716521_a_at) / Fold change /veh C10orf10 (11716521_a_at) / RFU C5orf56 (11738089_at) / Fold change /veh C5orf56 (11738089_at) / RFU CYB561 (11721691_x_at) / Fold change /veh CYB561 (11721691_x_at) / RFU ANKRD19P (11752326_a_at) / Fold change /veh ANKRD19P (11752326_a_at) / RFU OR2T12 /// OR2T33 /// OR2T8 (11738714_s_at) / Fold change /veh OR2T12 /// OR2T33 /// OR2T8 (11738714_s_at) / RFU VCAN (11748164_a_at) / Fold change /veh VCAN (11748164_a_at) / RFU JSRP1 (11732532_at) / Fold change /veh JSRP1 (11732532_at) / RFU KRTAP10-11 (11738290_x_at) / Fold change /veh KRTAP10-11 (11738290_x_at) / RFU MYO3A (11730013_a_at) / Fold change /veh MYO3A (11730013_a_at) / RFU EBF3 (11725865_a_at) / Fold change /veh EBF3 (11725865_a_at) / RFU CAMK2N1 (11719241_x_at) / Fold change /veh CAMK2N1 (11719241_x_at) / RFU C5orf56 (11738088_a_at) / Fold change /veh C5orf56 (11738088_a_at) / RFU OLFML3 (11715873_a_at) / Fold change /veh OLFML3 (11715873_a_at) / RFU LOC100653217 /// NTM (11731650_a_at) / Fold change /veh LOC100653217 /// NTM (11731650_a_at) / RFU MAPK11 (11762145_a_at) / Fold change /veh MAPK11 (11762145_a_at) / RFU FIZ1 (11724087_x_at) / Fold change /veh FIZ1 (11724087_x_at) / RFU OASL (11726364_x_at) / Fold change /veh OASL (11726364_x_at) / RFU SOX15 (11748057_x_at) / Fold change /veh SOX15 (11748057_x_at) / RFU CD79A (11719716_a_at) / Fold change /veh CD79A (11719716_a_at) / RFU HIST1H1D (11736915_at) / Fold change /veh HIST1H1D (11736915_at) / RFU CASKIN2 (11723855_a_at) / Fold change /veh CASKIN2 (11723855_a_at) / RFU LOC730098 (11760151_x_at) / Fold change /veh LOC730098 (11760151_x_at) / RFU OR4N2 (11742367_at) / Fold change /veh OR4N2 (11742367_at) / RFU PRRT2 (11749266_a_at) / Fold change /veh PRRT2 (11749266_a_at) / RFU SNX32 (11753110_a_at) / Fold change /veh SNX32 (11753110_a_at) / RFU CDHR5 (11726645_a_at) / Fold change /veh CDHR5 (11726645_a_at) / RFU RCAN1 (11760418_a_at) / Fold change /veh RCAN1 (11760418_a_at) / RFU FAM167A (11723789_a_at) / Fold change /veh FAM167A (11723789_a_at) / RFU FAM26E (11764081_at) / Fold change /veh FAM26E (11764081_at) / RFU ISYNA1 (11749810_s_at) / Fold change /veh ISYNA1 (11749810_s_at) / RFU ACY1 (11761880_at) / Fold change /veh ACY1 (11761880_at) / RFU 11764098_at / Fold change /veh 11764098_at / RFU SAMD14 (11745864_x_at) / Fold change /veh SAMD14 (11745864_x_at) / RFU NPB (11741838_a_at) / Fold change /veh NPB (11741838_a_at) / RFU TMPRSS6 (11731388_a_at) / Fold change /veh TMPRSS6 (11731388_a_at) / RFU KRTAP10-2 (11738614_at) / Fold change /veh KRTAP10-2 (11738614_at) / RFU ARHGAP8 /// PRR5-ARHGAP8 (11727945_x_at) / Fold change /veh ARHGAP8 /// PRR5-ARHGAP8 (11727945_x_at) / RFU KRTAP5-7 /// NADSYN1 (11734609_at) / Fold change /veh KRTAP5-7 /// NADSYN1 (11734609_at) / RFU RASL12 (11751679_a_at) / Fold change /veh RASL12 (11751679_a_at) / RFU CDKN2B (11736163_a_at) / Fold change /veh CDKN2B (11736163_a_at) / RFU PRF1 (11729649_at) / Fold change /veh PRF1 (11729649_at) / RFU, ZNF638 /// ZNF638-IT1 / Fold change vs veh, ZNF638 /// ZNF638-IT1 / RFU, PANK3 / Fold change vs veh, PANK3 / RFU, SH3YL1 / Fold change vs veh, SH3YL1 / RFU, ZEB2 / Fold change vs veh, ZEB2 / RFU, NRIP1 / Fold change vs veh, NRIP1 / RFU, PTTG1IP / Fold change vs veh, PTTG1IP / RFU, CAPN2 / Fold change vs veh, CAPN2 / RFU, MED14 / Fold change vs veh, MED14 / RFU, SNORA58 / Fold change vs veh, SNORA58 / RFU, C1orf63 / Fold change vs veh, C1orf63 / RFU, LRRFIP1 / Fold change vs veh, LRRFIP1 / RFU, NDUFAF7 / Fold change vs veh, NDUFAF7 / RFU, SLC12A2 / Fold change vs veh, SLC12A2 / RFU, IBTK / Fold change vs veh, IBTK / RFU, ESF1 / Fold change vs veh, ESF1 / Fold change vs veh, TMEM50B / RFU, TAOK1 / Fold change vs veh, TAOK1 / RFU, ACBD3 / Fold change vs veh, ACBD3 / RFU, TMA16 / Fold change vs veh, TMA16 / RFU, RWDD3 / Fold change vs veh, RWDD3 / RFU, BCAT1 / Fold change vs veh, BCAT1 / RFU, EDEM3 / Fold change vs veh, EDEM3 / RFU, TMEM33 / Fold change vs veh, TMEM33 / RFU, WDR75 / Fold change vs veh, WDR75 / RFU, AHCTF1 / Fold change vs veh, AHCTF1 / RFU, TFRC / Fold change vs veh, TFRC / RFU, ZDHHC17 / Fold change vs veh, ZDHHC17 / RFU, NOM1 / Fold change vs veh, NOM1 / RFU, ARL8B / Fold change vs veh, ARL8B / RFU, ZBTB11 / Fold change vs veh, ZBTB11 / RFU, TAMM41 / Fold change vs veh, TAMM41 / RFU, KIAA1704 /// LOC100996395 / Fold change vs veh, KIAA1704 /// LOC100996395 / RFU, ING1 / Fold change vs veh, ING1 / RFU, TRMT61B / Fold change vs veh, TRMT61B / RFU, FUBP3 / Fold change vs veh, FUBP3 / RFU, TP53 / Fold change vs veh, TP53 / RFU, TNKS2 / Fold change vs veh, TNKS2 / RFU, ZFP14 / Fold change vs veh, ZFP14 / RFU, ACTR2 / Fold change vs veh, ACTR2 / RFU, PPP3R1 / Fold change vs veh, PPP3R1 / RFU, PIK3R1 / Fold change vs veh, PIK3R1 / RFU, HNRNPA1 / Fold change vs veh, HNRNPA1 / RFU, RNF170 / Fold change vs veh, RNF170 / RFU, ZNF28 / Fold change vs veh, ZNF28 / RFU, RNGTT / Fold change vs veh, RNGTT / RFU, OGT / Fold change vs veh, OGT / RFU, BRD1 / Fold change vs veh, BRD1 / RFU, MARS / Fold change vs veh, MARS / RFU, ZNF655 / Fold change vs veh, ZNF655 / RFU, FAHD1 / Fold change vs veh, FAHD1 / RFU, BDP1 / Fold change vs veh, BDP1 / RFU, LRRCC1 / Fold change vs veh, LRRCC1 / RFU, ARID1A / Fold change vs veh, ARID1A / RFU, ZNF146 / Fold change vs veh, ZNF146 / RFU, ZNF330 / Fold change vs veh, ZNF330 / RFU, GPN3 / Fold change vs veh, GPN3 / RFU, C9orf123 / Fold change vs veh, C9orf123 / RFU, N4BP2L2 / Fold change vs veh, N4BP2L2 / RFU, ARFIP1 / Fold change vs veh, ARFIP1 / RFU, FAM179B / Fold change vs veh, FAM179B / RFU, BCL10 / Fold change vs veh, BCL10 / RFU, UHRF1BP1L / Fold change vs veh, UHRF1BP1L / RFU, BET1 / Fold change vs veh, BET1 / RFU, CNOT2 / Fold change vs veh, CNOT2 / RFU, ZNF268 / Fold change vs veh, ZNF268 / Fold change vs veh, ZNF507 / RFU, DGCR2 / Fold change vs veh, DGCR2 / RFU, WDSUB1 / Fold change vs veh, WDSUB1 / Fold change vs veh, HSP90B1 /// MIR3652 / RFU, ADSS / Fold change vs veh, ADSS / RFU, GK / Fold change vs veh, GK / RFU, ZNF148 / Fold change vs veh, ZNF148 / RFU, TAF9 / Fold change vs veh, TAF9 / RFU, SLC1A5 / Fold change vs veh, SLC1A5 / RFU, SLMO2 / Fold change vs veh, SLMO2 / RFU, ABCC4 / Fold change vs veh, ABCC4 / RFU, LOC101060439 /// RAP1B / Fold change vs veh, LOC101060439 /// RAP1B / RFU, RFX7 / Fold change vs veh, RFX7 / RFU, GTPBP10 / Fold change vs veh, GTPBP10 / RFU, CNEP1R1 / Fold change vs veh, CNEP1R1 / RFU, BIVM-ERCC5 /// ERCC5 / Fold change vs veh, BIVM-ERCC5 /// ERCC5 / RFU, ILF3 / Fold change vs veh, ILF3 / RFU 11762660_at / Fold change /veh 11762660_at / RFU VCAN (11757783_s_at) / Fold change /veh VCAN (11757783_s_at) / RFU DDX43 (11728927_at) / Fold change /veh DDX43 (11728927_at) / RFU KRT8 (11758188_x_at) / Fold change /veh KRT8 (11758188_x_at) / RFU NKD1 (11759106_at) / Fold change /veh NKD1 (11759106_at) / RFU SRD5A1 (11742802_a_at) / Fold change /veh SRD5A1 (11742802_a_at) / RFU TPSAB1 /// TPSB2 (11721975_s_at) / Fold change /veh TPSAB1 /// TPSB2 (11721975_s_at) / RFU GSTM3 (11746129_a_at) / Fold change /veh GSTM3 (11746129_a_at) / RFU IL23R (11737362_x_at) / Fold change /veh IL23R (11737362_x_at) / RFU TMEM51 (11727254_a_at) / Fold change /veh TMEM51 (11727254_a_at) / RFU PIWIL2 (11732686_x_at) / Fold change /veh PIWIL2 (11732686_x_at) / RFU ORM1 (11744905_x_at) / Fold change /veh ORM1 (11744905_x_at) / RFU CCDC152 (11743942_at) / Fold change /veh CCDC152 (11743942_at) / RFU ECM1 (11717891_a_at) / Fold change /veh ECM1 (11717891_a_at) / RFU IL23R (11748794_a_at) / Fold change /veh IL23R (11748794_a_at) / RFU TNFAIP8L3 (11732012_x_at) / Fold change /veh TNFAIP8L3 (11732012_x_at) / RFU MBOAT4 (11741988_at) / Fold change /veh MBOAT4 (11741988_at) / RFU 11764193_at / Fold change /veh 11764193_at / RFU TMEM53 (11763286_at) / Fold change /veh TMEM53 (11763286_at) / RFU MAGEB2 (11727129_at) / Fold change /veh MAGEB2 (11727129_at) / RFU TMEM200A (11744735_a_at) / Fold change /veh TMEM200A (11744735_a_at) / RFU CCDC152 (11751479_a_at) / Fold change /veh CCDC152 (11751479_a_at) / RFU FAM211A (11726209_a_at) / Fold change /veh FAM211A (11726209_a_at) / RFU RGS16 (11746705_a_at) / Fold change /veh RGS16 (11746705_a_at) / RFU VCAN (11755009_s_at) / Fold change /veh VCAN (11755009_s_at) / RFU RHOB (11743442_s_at) / Fold change /veh RHOB (11743442_s_at) / RFU RGS16 (11720943_a_at) / Fold change /veh RGS16 (11720943_a_at) / RFU RGS16 (11720944_at) / Fold change /veh RGS16 (11720944_at) / RFU, VPS4B / Fold change vs veh, VPS4B / RFU, CREB1 / Fold change vs veh, CREB1 / RFU, DNAJC13 / Fold change vs veh, DNAJC13 / RFU, GNAQ / Fold change vs veh, GNAQ / RFU, CDK5R1 / Fold change vs veh, CDK5R1 / RFU, ZRANB3 / Fold change vs veh, ZRANB3 / RFU, CUL4A / Fold change vs veh, CUL4A / RFU, CCNY / Fold change vs veh, CCNY / RFU, UFL1 / Fold change vs veh, UFL1 / RFU, COG3 / Fold change vs veh, COG3 / RFU, DIAPH2 / Fold change vs veh, DIAPH2 / RFU, SKA2 / Fold change vs veh, SKA2 / RFU, AFF3 / Fold change vs veh, AFF3 / RFU, LMF1 / Fold change vs veh, LMF1 / RFU, IPO11 / Fold change vs veh, IPO11 / RFU, DFFB / Fold change vs veh, DFFB / RFU, FOXP1 / Fold change vs veh, FOXP1 / RFU, CARD8 / Fold change vs veh, CARD8 / RFU, STRN3 / Fold change vs veh, STRN3 / RFU, ADK / Fold change vs veh, ADK / RFU, RASSF2 / Fold change vs veh, RASSF2 / RFU, WIPF1 / Fold change vs veh, WIPF1 / RFU, LARP1B / Fold change vs veh, LARP1B / RFU, RASA1 / Fold change vs veh, RASA1 / RFU, RB1 / Fold change vs veh, RB1 / RFU, PPFIA1 / Fold change vs veh, PPFIA1 / RFU, MAT2A / Fold change vs veh, MAT2A / RFU, CCT5 / Fold change vs veh, CCT5 / RFU, WDR92 / Fold change vs veh, WDR92 / RFU, CUX1 / Fold change vs veh, CUX1 / RFU, TTC7A / Fold change vs veh, TTC7A / RFU, TMEM135 / Fold change vs veh, TMEM135 / RFU, DEPTOR / Fold change vs veh, DEPTOR / RFU, CPM / Fold change vs veh, CPM / RFU, DNAJB6 / Fold change vs veh, DNAJB6 / RFU, CACNA2D3 / Fold change vs veh, CACNA2D3 / RFU, DTX4 / Fold change vs veh, DTX4 / RFU, TFCP2 / Fold change vs veh, TFCP2 / RFU, GMCL1 /// GMCL1P1 / Fold change vs veh, GMCL1 /// GMCL1P1 / RFU, AEBP2 / Fold change vs veh, AEBP2 / RFU, SNHG1 /// SNORD22 /// SNORD25 /// SNORD26 /// SNORD27 /// SNORD28 /// SNORD29 /// SNORD31 / Fold change vs veh, SNHG1 /// SNORD22 /// SNORD25 /// SNORD26 /// SNORD27 /// SNORD28 /// SNORD29 /// SNORD31 / Fold change (Aza/veh), C12orf56 (ProbeSet 11735607_a_at) / Fold change (ACY-1035/veh), C12orf56 (ProbeSet 11735607_a_at) / Fold change (Aza/veh), FGFR1OP (ProbeSet 11751329_s_at) / Fold change (ACY-1035/veh), FGFR1OP (ProbeSet 11751329_s_at) / Fold change (Aza/veh), VPS36 (ProbeSet 11739960_a_at) / Fold change (ACY-1035/veh), VPS36 (ProbeSet 11739960_a_at) / RFU SYPL1 (11715823_x_at) / Fold change /veh SYPL1 (11715823_x_at) / RFU IGFBP7 (11715501_s_at) / Fold change /veh IGFBP7 (11715501_s_at) / RFU REEP3 (11722064_at) / Fold change /veh REEP3 (11722064_at) / RFU IGLL1 (11728026_x_at) / Fold change /veh IGLL1 (11728026_x_at): dose or concentration left out as unconfirmed
Conditions: MV-4-11 cells, 48 hours

Compound: Nc1ncn([C@@H]2O[C@H](CO)[C@@H](O)[C@H]2O)c(=O)n1 [azacitidine]
- Fold change /veh KRT8 (11758183_x_at): 1.18
